From patent US11999723B2, “Pyrazole-containing macrophage migration inhibitory factor inhibitors” (priority 2018, dated 2024) come the findings set out here.

The assay addresses MIF (Homo sapiens (Human), UniProt P14174). Kind of assay: HPP tautomerase assay (inhibition of the tautomerase activity of MIF). Format: biochemical. To be noted: for lowering of the Ki relative to 8n: HPP tautomerase assay. As to the method: Inhibition of the tautomerase activity of MIF was measured using the substrate 4-hydroxyphenyl pyruvic acid (HPP) in a procedure largely adapted from previous reports. A solution of HPP (10 mM) in acetate buffer (0.5 M ammonium acetate, pH adjusted to 6.0) was prepared and allowed to incubate overnight in the dark at room temperature to allow for equilibration of the keto and enol forms. Following the incubation period, the HPP solution was stored at 4° C. and used for no more than a week. […] A negative control (containing water and DMSO in lieu of protein and inhibitor, respectively) and a positive control (containing DMSO in lieu of inhibitor) were also prepared. The reaction began upon the addition of HPP solution (final concentration: 1.0 mM and 2.5 mM). […] Absorbance was measured three times for each [inhibitor]-[HPP] combination. […] Reported Ki values represent the average value obtained from two assays performed on different days. (R)-ISO-1 (purchased from Santa Cruz Biotechnology) was used as a control.
Recombinant human MIF was expressed and purified according to published protocols. Briefly, for the purification of MIF, E. coli cell pellets were suspended in lysis buffer (20 mM Tris, pH 7.5; 20 mM sodium chloride; 10% glycerol; 2 mM magnesium chloride; 1 cOmplete mini protease inhibitor cocktail tablet per 250 mL of buffer). The solution was sonicated and centrifuged at 27,000G for 30 mins. The supernatant was filtered through a 0.22 μm syringe filter and loaded on a GE Healthcare Hi-Trap SP HP column in sequence with a GE Healthcare Hi-Trap Q SP column equilibrated with a buffer composed of 20 mM NaCl and 20 mM Tris, pH 7.5. […] To achieve highest purity, the flow-through was further purified with a GE Healthcare Superdex 200 column. The purified protein was concentrated with a 10 kDa centrifugal filter unit to 30 mg/mL, flash-frozen in liquid nitrogen, and stored at −80° C.
As in prior studies, the inhibition constants Ki were determined using HPP as the substrate. […] In addition, the aqueous solubilities of several compounds were measured with a shake-flask procedure.

Where [1] appears, read: HPP as substrate, MIF tautomerase, read-out: Experimental inhibition constants, Ki.
[2] abbreviates: Table 3, HPP as substrate, unit inferred, read-out: HPP Ki.

Where two headings read alike, the source gives them in different places.

MIF, sequence (P14174 2-115): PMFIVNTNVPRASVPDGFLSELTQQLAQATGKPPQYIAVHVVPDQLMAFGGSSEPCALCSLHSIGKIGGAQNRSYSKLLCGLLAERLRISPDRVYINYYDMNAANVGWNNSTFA

The Ki is the equilibrium dissociation constant of an inhibitor or competing ligand from its target. On to `Cc1ccccc1Oc1ccc(-c2cn[nH]c2)cc1C(=O)O` [Compound 8b, 5-(1H-Pyrazol-4-yl)-2-(o-tolyloxy)benzoic acid], for which, under setting [1], the Ki is 4.3 µM.

As for `COc1cccc(Oc2ccc(-c3cn[nH]c3)cc2C(=O)O)c1` [Compound 9i, 2-(3-methoxyphenoxy)-5-(1H-pyrazol-4-yl)benzoic acid], the inhibition constant Ki under setting [2] worked out at 2.5 µM.

Regarding `Cc1n[nH]cc1-c1ccc(Oc2ccc3ccccc3c2)c(C(=O)O)c1` [Compound 9cc, 5-(3-methyl-1H-pyrazol-4-yl)-2-(naphthalen-2-yloxy)benzoic acid], the Ki under setting [2] is 15 µM.

For `Cc1ccc2ccc(Oc3ccc(-c4cn[nH]c4)cc3C(=O)O)cc2c1` [Compound 9u, 2-((7-methylnaphthalen-2-yl)oxy)-5-(1H-pyrazol-4-yl)benzoic acid], the Ki under setting [2] stood at 1.9 µM.

Turning to `O=C(O)c1cc(-c2c[nH]nc2F)ccc1Oc1cccc(C(F)(F)F)c1` [Compound 9w, 5-(3-fluoro-1H-pyrazol-4-yl)-2-(3-(trifluoromethyl)phenoxy) benzoic acid], the Ki under setting [2] was 0.71 µM.

With `O=C(O)c1cc(-c2cn[nH]c2)ccc1Oc1cccc(F)c1` [Compound 8e, 2-(3-Fluorophenoxy)-5-(1H-pyrazol-4-yl)benzoic acid], the Ki under setting [1] was found to be 1.7 µM.

With `CCc1ccc2ccc(Oc3ccc(-c4c[nH]nc4F)cc3C(=O)O)cc2c1` [Compound 8q, 2-((7-Ethylnaphthalen-2-yl)oxy)-5-(3-fluoro-1H-pyrazol-4-yl)benzoic acid], the “lowering of the Ki relative to 8n” value was found to be 3 fold. Moreover, the Ki under setting [1] is 0.14 µM.

For the molecule `CN(c1ccc2ccccc2c1)c1ccc(-c2cn[nH]c2)cc1C(=O)O` [Compound 7b, 2-(Methyl(naphthalen-2-yl)amino)-5-(1H-pyrazol-4-yl)benzoic acid], the Ki under setting [1] worked out at 4.2 µM.

`O=C(O)c1cc(-c2c[nH]nc2F)ccc1Oc1cccc(-c2ccccc2)c1` [Compound 8u, 2-([1,1′-Biphenyl]-3-yloxy)-5-(3-fluoro-1H-pyrazol-4-yl)benzoic acid]: the Ki under setting [1] is 0.13 µM.

Turning to `O=C(O)c1cc(-c2cn[nH]c2)ccc1Nc1ccccc1` [Compound 7a, 2-(Phenylamino)-5-(1H-pyrazol-4-yl)benzoic acid], the Ki under setting [1] was 12.7 µM.

For the molecule `O=C(O)c1cc(-c2cn[nH]c2)ccc1Oc1ccc(F)cc1` [Compound 8f, 2-(4-Fluorophenoxy)-5-(1H-pyrazol-4-yl)benzoic acid], the Ki under setting [1] was 4.6 µM.

As to `CCc1ccc2c(C3CC3)cc(Oc3ccc(-c4c[nH]nc4F)cc3C(=O)O)cc2c1` [Compound 8s, 2-((4-Cyclopropyl-7-ethylnaphthalen-2-yl)oxy)-5-(3-fluoro-1H-pyrazol-4-yl)benzoic acid], the Ki under setting [1] turned out to be 0.066 µM.

For `Cc1cccc(Oc2ccc(-c3cn[nH]c3)cc2C(=O)O)c1` [Compound 8c, 5-(1H-Pyrazol-4-yl)-2-(m-tolyloxy)benzoic acid], under setting [1], the Ki was determined as 3.8 µM.

Regarding `O=C(O)c1cc(-c2cn[nH]c2)ccc1Oc1cc2c3c(cccc3c1)CC2` [Compound 8l, 2-((1,2-Dihydroacenaphthylen-4-yl)oxy)-5-(1H-pyrazol-4-yl)benzoic acid], under setting [1], the Ki worked out at 1.1 µM.

On to `O=C(O)c1cc(-c2c[nH]nc2F)ccc1Oc1ccc2c(c1)CCCC2` [Compound 9y, 5-(3-fluoro-1H-pyrazol-4-yl)-2-((5,6,7,8-tetrahydronaphthalen-2-yl)oxy)benzoic acid], for which the Ki under setting [2] came out at 0.26 µM.

On to `O=C(O)c1cc(-c2c[nH]nc2F)ccc1Oc1cccc(-c2ncccn2)c1` [Compound 9aa, 5-(3-fluoro-1H-pyrazol-4-yl)-2-(3-(pyrimidin-2-yl)phenoxy)benzoic acid], for which the Ki under setting [2] was 0.23 µM.

With `O=C(O)c1cc(-c2c[nH]nc2F)ccc1Oc1ccc2ccc(C3CC3)cc2c1` [Compound 9x, 2-((7-cyclopropylnaphthalen-2-yl)oxy)-5-(3-fluoro-1H-pyrazol-4-yl)benzoic acid], the Ki under setting [2] was found to be 0.15 µM.

As to `O=C(O)c1cc(-c2c[nH]nc2F)ccc1Oc1cccc2ccccc12` [Compound 8m, 5-(3-Fluoro-1H-pyrazol-4-yl)-2-(naphthalen-1-yloxy)benzoic acid], the Ki under setting [1] worked out at 0.48 µM.

Take `COc1ccc(Oc2ccc(-c3cn[nH]c3)cc2C(=O)O)cc1` [Compound 9h, 2-(4-methoxyphenoxy)-5-(1H-pyrazol-4-yl)benzoic acid]: the Ki under setting [2] came out at 2.3 µM.

In the case of `O=C(O)c1cc(-c2c[nH]nc2F)ccc1Oc1cc2c3c(cccc3c1)CC2` [Compound 9v, 2-((1,2-dihydroacenaphthylen-4-yl)oxy)-5-(3-fluoro-1H-pyrazol-4-yl)benzoic acid], the Ki under setting [2] came to 0.1 µM.

On to `Cc1ccc(Oc2ccc(-c3cn[nH]c3)cc2C(=O)O)cc1` [Compound 8d, 5-(1H-Pyrazol-4-yl)-2-(p-tolyloxy)benzoic acid], for which, under setting [1], the Ki was found to be 7 µM.

As to `O=C(O)c1cc(-c2cn[nH]c2)ccc1Oc1cccc2ccoc12` [Compound 9m, 2-(benzofuran-7-yloxy)-5-(1H-pyrazol-4-yl)benzoic acid], the Ki under setting [2] is 3.7 µM.

For the molecule `CCc1cccc2cc(Oc3ccc(-c4c[nH]nc4F)cc3C(=O)O)ccc12` [Compound 8p, 2-((5-Ethylnaphthalen-2-yl)oxy)-5-(3-fluoro-1H-pyrazol-4-yl)benzoic acid], the “lowering of the Ki relative to 8n” value came to 3 fold. Besides, under setting [1], the Ki worked out at 0.17 µM.

In the case of `O=C(O)c1cc(-c2cn[nH]c2)ccc1OC1C2CC3CC(C2)CC1C3` (stereo not drawn) [Compound 8k, 2-((Adamantan-2-yl)oxy)-5-(1H-pyrazol-4-yl)benzoic acid], under setting [1], the Ki worked out at 2.6 µM.

Turning to `O=C(O)c1cc(-c2c[nH]nc2F)ccc1Oc1cccc(-c2ccc(CCN3CCOCC3)cc2)c1` [Compound 9bb, 5-(3-fluoro-1H-pyrazol-4-yl)-2-((4′-(2-morpholinoethyl)-[1,1′-biphenyl]-3-yl)oxy)benzoic acid], the Ki under setting [2] was determined as 0.33 µM.

As for `CC(=O)NCCc1ccc(Oc2ccc(-c3cn[nH]c3)cc2C(=O)O)cc1` [Compound 9l, 2-(4-(2-acetamidoethyl)phenoxy)-5-(1H-pyrazol-4-yl)benzoic acid], the Ki under setting [2] worked out at 11 µM.

Turning to `O=C(O)c1cc(-c2c[nH]nc2F)ccc1Oc1ccc2ccoc2c1` [Compound 9s, 2-(benzofuran-6-yloxy)-5-(3-fluoro-1H-pyrazol-4-yl)benzoic acid], the Ki under setting [2] is 0.57 µM.

In the case of `O=C(O)c1cc(-c2cn[nH]c2)ccc1-c1ccc2ccccc2c1` [Compound 6c, 2-(Naphthalen-2-yl)-5-(1H-pyrazol-4-yl)benzoic acid], the Ki is 5 µM. Also, under setting [1], the inhibitory constant (Ki) was 5.4 µM.

Take `O=C(O)c1cc(-c2c[nH]nc2F)ccc1Oc1cccc(F)c1` [Compound 9t, 5-(3-fluoro-1H-pyrazol-4-yl)-2-(3-fluorophenoxy)benzoic acid]: the Ki under setting [2] amounted to 2.1 µM.

In the case of `O=C(O)c1cc(-c2c[nH]nc2F)ccc1Oc1cc(C2CC2)c2ccccc2c1` [Compound 8r, 2-((4-Cyclopropylnaphthalen-2-yl)oxy)-5-(3-fluoro-1H-pyrazol-4-yl)benzoic acid], the Ki under setting [1] was 0.11 µM.

In the case of `O=C(O)c1cc(-c2cn[nH]c2)ccc1Oc1ccccc1` [Compound 8a, 2-Phenoxy-5-(1H-pyrazol-4-yl)benzoic acid], the Ki under setting [1] stood at 6.8 µM.

For the molecule `Cc1ccc(-c2cn[nH]c2)cc1C(=O)O` [Compound 9e, 2-methyl-5-(1H-pyrazol-4-yl)benzoic acid], under setting [2], the Ki was determined as 60 µM.

For the molecule `O=C(O)c1cc(-c2cn[nH]c2)ccc1Oc1ccc2ccoc2c1` [Compound 9p, 2-(benzofuran-6-yloxy)-5-(1H-pyrazol-4-yl)benzoic acid], the Ki under setting [2] was found to be 1.5 µM.

On to `O=C(O)c1cc(-c2c[nH]nc2F)ccc1Oc1ccc(-c2ccccc2)cc1` [Compound 8t, 2-([1,1′-Biphenyl]-4-yloxy)-5-(3-fluoro-1H-pyrazol-4-yl)benzoic acid], for which, under setting [1], the Ki worked out at 0.35 µM.

`O=C(O)c1cc(-c2cn[nH]c2)ccc1Oc1cc2ccccc2c2ccccc12` [Compound 8j, 2-(Phenanthren-9-yloxy)-5-(1H-pyrazol-4-yl)benzoic acid]: the Ki under setting [1] was 2.3 µM.

In the case of `O=C(O)c1cc(-c2cn[nH]c2)ccc1Oc1cc2c3c(cccc3c1)C=C2` [Compound 9q, 2-(acenaphthylen-4-yloxy)-5-(1H-pyrazol-4-yl)benzoic acid], the Ki under setting [2] worked out at 1.5 µM.

Turning to `O=C(O)c1cc(-c2c[nH]nc2F)ccc1Oc1ccc2c(C3CC3)cccc2c1` [Compound 9z, 2-((5-cyclopropylnaphthalen-2-yl)oxy)-5-(3-fluoro-1H-pyrazol-4-yl)benzoic acid], the Ki under setting [2] came out at 0.11 µM.

For the molecule `CS(=O)(=O)c1cc(-c2cn[nH]c2)ccc1Oc1ccc2ccccc2c1` [Compound 8h, 4-(3-(Methylsulfonyl)-4-(naphthalen-2-yloxy)phenyl)-1H-pyrazole], the Ki under setting [1] came to 6.4 µM.

`O=C(O)c1cc(-c2cn[nH]c2)ccc1-c1ccccc1` [Compound 6a, 4-(1H-pyrazol-4-yl)-[1,1′-biphenyl]-2-carboxylic acid]: the inhibition constant Ki under setting [1] worked out at 20.6 µM.
